Consider 28 compounds from patent US12466800B2, “N-((1,2,3,5,6,7-hexahydro-S-indacen-4-yl)carbamoyl)-4, 5, 6, 7-tetrahydrobenzofuran-2-sulfonamide derivatives and related compounds as NLPR3 modulators for the treatment of multiple sclerosis (MS)” (Zomagen Biosciences Ltd, priority 2019, dated 2025).

Where only a bound is given, the exact number is not on record here.

The IC50 is the point on the concentration scale where inhibition reaches its midpoint. A high value points to weaker potency.

The test concerns IL-1b. As to the kind of experiment: Mouse BMDM IL-1b Assay. Type of test: cell-based. The settings on record: Macrophage; mouse bone marrow derived macrophages (C57BL6); 200 ng/mL LPS 3 h, compound 30 min, 5 mM ATP 45 min; IL-1b ELISA of supernatant. The procedure:
Example 20: Mouse BMDM IL-1b Assay
Mouse bone marrow cells from C57BL6 tibia and femur were culture in complete Isocov's Media supplemented with 20 ng/mL MCSF (BMDM media) at a density of 50 million cells/15 cm Petri dish. Fresh media was changed every 3 days, and bone marrow derived macrophages were collected, washed, and counted on day 7. Cells were seeded into 96 well plates at a density of 5×10^4 cells per well in 100 uL of BMDM media and cultured overnight. The cells were stimulated at 37° C. with 200 ng/mL Ultrapure LPS-B5 for 3 hours before pre-diluted compounds were added. 30 minutes after compound addition, 5 mM ATP was added for the secondary stimulation for 45 minutes. After stimulation, the plates were briefly spun down, and 50 uL of supernatant was harvested from each well. ELISA for mouse IL-1b was performed with 1:10 and 1:100 diluted supernatant using pre-coated kits. IL-1b concentrations were calculated based on pre-titrated standards, and compound inhibition IC50 is generated using the Levenberg Marquardt damped lease-square method.
In general terms: An ELISA detects its analyte on a solid surface through an enzyme-linked reagent.
In the case of `CC(C)c1cc(Cl)cc(C(C)C)c1NC(=O)NS(=O)(=O)c1cc2c(o1)CCC/C2=N\O` [Compound 78, (E)-N-((4-chloro-2,6-diisopropylphenyl)carbamoyl)-4-(hydroxyimino)-4,5,6,7-tetrahydrobenzofuran-2-sulfonamide], the IC50 was 1000 to 10000 nM.
`CC(C)c1ccc(Cl)c(C(C)C)c1NC(=O)NS(=O)(=O)c1cc2c(o1)CCC/C2=N/O` [Compound 79, (Z)-N-((3-chloro-2,6-diisopropylphenyl)carbamoyl)-4-(hydroxyimino)-4,5,6,7-tetrahydrobenzofuran-2-sulfonamide] registered an IC50 of 100 to 1000 nM.
With `CC(C)c1ccc(Cl)c(C(C)C)c1NC(=O)NS(=O)(=O)c1cc2c(o1)CCC/C2=N\O` [Compound 80, (E)-N-((3-chloro-2,6-diisopropylphenyl)carbamoyl)-4-(hydroxyimino)-4,5,6,7-tetrahydrobenzofuran-2-sulfonamide] the figure was 100 to 1000 nM.
Next, `CC(C)c1cccc(C(C)C)c1NC(=O)NS(=O)(=O)c1cc2c(o1)CCC/C2=N\O` [Compound 81, (E)-N-((2,6-diisopropylphenyl)carbamoyl)-4-(hydroxyimino)-4,5,6,7-tetrahydrobenzofuran-2-sulfonamide]: 1000 to 10000 nM.
As to `O=C(Nc1c2c(c(Br)c3c1CCC3)CCC2)NS(=O)(=O)c1cc2c(o1)CCC/C2=N/O` [Compound 82, (Z)-N-((8-bromo-1,2,3,4,5,6,7-hexahydro-s-indacen-4-yl)carbamoyl)-4-(hydroxyimino)-4,5,6,7-tetrahydrobenzofuran-2-sulfonamide], the IC50 lay in the range of 100 to 1000 nM.
With `O=C(Nc1c2c(c(Cl)c3c1CCC3)CCC2)NS(=O)(=O)c1cc2c(o1)CCC/C2=N/O` [Compound 83, (Z)-N-((8-chloro-1,2,3,5,6,7-hexahydro-s-indacen-4-yl)carbamoyl)-4-(hydroxyimino)-4,5,6,7-tetrahydrobenzofuran-2-sulfonamide] the figure was below 100 nM.
In turn, `CC(C)N1CCCc2oc(S(=O)(=O)NC(=O)Nc3c4c(cc5c3CCC5)CCC4)cc2C1=O` [Compound 84, N-((1,2,3,5,6,7-hexahydro-s-indacen-4-yl)carbamoyl)-5-isopropyl-4-oxo-5,6,7,8-tetrahydro-4H-furo[3,2-c]azepine-2-sulfonamide] displayed an IC50 of 1000 to 10000 nM.
Next, `CC(C)c1cc(F)cc(C(C)C)c1NC(=O)NS(=O)(=O)c1cc2c(o1)CCC/C2=N/O` [Compound 85, (Z)-N-((4-fluoro-2,6-diisopropylphenyl)carbamoyl)-4-(hydroxyimino)-4,5,6,7-tetrahydrobenzofuran-2-sulfonamide]: 1000 to 10000 nM; `CC(C)c1cc(F)cc(C(C)C)c1NC(=O)NS(=O)(=O)c1cc2c(o1)CCC/C2=N\O` [Compound 86, (E)-N-((4-fluoro-2,6-diisopropylphenyl)carbamoyl)-4-(hydroxyimino)-4,5,6,7-tetrahydrobenzofuran-2-sulfonamide]: 100 to 1000 nM; `CN1CCCc2oc(S(=O)(=O)NC(=O)Nc3c4c(cc5c3CCC5)CCC4)cc2C1` [Compound 87, N-((1,2,3,5,6,7-hexahydro-s-indacen-4-yl)carbamoyl)-5-methyl-5,6,7,8-tetrahydro-4H-furo[3,2-c]azepine-2-sulfonamide]: below 100 nM.
Next, `C=CCC1(O)c2cc(S(=O)(=O)NC(=O)Nc3c4c(cc5c3CCC5)CCC4)oc2CCC1(C)C` (stereo not shown) [Compound 88, 4-allyl-N-((1,2,3,5,6,7-hexahydro-s-indacen-4-yl)carbamoyl)-4-hydroxy-5,5-dimethyl-4,5,6,7-tetrahydrobenzofuran-2-sulfonamide]: below 100 nM.
Next, `O=C(Nc1c2c(c(F)c3c1CCC3)CCC2)NS(=O)(=O)c1cc2c(o1)CCC/C2=N/O` [Compound 89, (Z)-N-((8-fluoro-1,2,3,5,6,7-hexahydro-s-indacen-4-yl)carbamoyl)-4-(hydroxyimino)-4,5,6,7-tetrahydrobenzofuran-2-sulfonamide]: below 100 nM; `O=C(Nc1c2c(c(F)c3c1CCC3)CCC2)NS(=O)(=O)c1cc2c(o1)CCC/C2=N\O` [Compound 90, (E)-N-((8-fluoro-1,2,3,5,6,7-hexahydro-s-indacen-4-yl)carbamoyl)-4-(hydroxyimino)-4,5,6,7-tetrahydrobenzofuran-2-sulfonamide]: below 100 nM.
Compound `Cc1c(S(=O)(=O)NC(=O)Nc2c3c(cc4c2CCC4)CCC3)oc2c1C(=O)CCC2` [Compound 91, N-((1,2,3,5,6,7-hexahydro-s-indacen-4-yl)carbamoyl)-3-methyl-4-oxo-4,5,6,7-tetrahydrobenzofuran-2-sulfonamide] had an IC50 below 100 nM.
`Cc1c(S(=O)(=O)NC(=O)Nc2c3c(cc4c2CCC4)CCC3)oc2c1C(O)CCC2` (stereo not shown) [Compound 92, N-((1,2,3,5,6,7-hexahydro-s-indacen-4-yl)carbamoyl)-4-hydroxy-3-methyl-4,5,6,7-tetrahydrobenzofuran-2-sulfonamide] gave an IC50 below 100 nM.
Consider `Cc1c(S(=O)(=O)NC(=O)Nc2c3c(cc4c2CCC4)CCC3)oc2c1C(C)(O)CCC2` (stereo not shown) [Compound 93, N-((1,2,3,5,6,7-hexahydro-s-indacen-4-yl)carbamoyl)-4-hydroxy-3,4-dimethyl-4,5,6,7-tetrahydrobenzofuran-2-sulfonamide], for which the IC50 is below 100 nM.
For `CCOC(=O)CC1(C)CCCc2oc(S(=O)(=O)NC(=O)Nc3c4c(cc5c3CCC5)CCC4)c(C)c21` (stereo not shown) [Compound 94, ethyl 2-(2-(N-((1,2,3,5,6,7-hexahydro-s-indacen-4-yl)carbamoyl)sulfamoyl)-3,4-dimethyl-4,5,6,7-tetrahydrobenzofuran-4-yl)acetate], the IC50 was 100 to 1000 nM.
Next, `O=C(Nc1c2c(c(Br)c3c1CCC3)CCC2)NS(=O)(=O)c1cc2c(o1)CCC/C2=N\O` [Compound 95, (E)-N-((8-bromo-1,2,3,5,6,7-hexahydro-s-indacen-4-yl)carbamoyl)-4-(hydroxyimino)-4,5,6,7-tetrahydrobenzofuran-2-sulfonamide]: 100 to 1000 nM; `O=C(Nc1c2c(c(Cl)c3c1CCC3)CCC2)NS(=O)(=O)c1cc2c(o1)CCC/C2=N\O` [Compound 96, (E)-N-((8-chloro-1,2,3,5,6,7-hexahydro-s-indacen-4-yl)carbamoyl)-4-(hydroxyimino)-4,5,6,7-tetrahydrobenzofuran-2-sulfonamide]: 100 to 1000 nM; `CC(C)c1ccc(F)c(C(C)C)c1NC(=O)NS(=O)(=O)c1cc2c(o1)CCC/C2=N/O` [Compound 97, (Z)-N-((3-fluoro-2,6-diisopropylphenyl)carbamoyl)-4-(hydroxyimino)-4,5,6,7-tetrahydrobenzofuran-2-sulfonamide]: 100 to 1000 nM.
Next, `CC(C)c1ccc(F)c(C(C)C)c1NC(=O)NS(=O)(=O)c1cc2c(o1)CCC/C2=N\O` [Compound 98, (E)-N-((3-fluoro-2,6-diisopropylphenyl)carbamoyl)-4-(hydroxyimino)-4,5,6,7-tetrahydrobenzofuran-2-sulfonamide]: 100 to 1000 nM.
Next, `Cc1c(S(=O)(=O)NC(=O)Nc2c3c(cc4c2CCC4)CCC3)oc2c1/C(=N\O)CCC2` [Compound 99, (Z)-N-((1,2,3,5,6,7-hexahydro-s-indacen-4-yl)carbamoyl)-4-(hydroxyimino)-3-methyl-4,5,6,7-tetrahydrobenzofuran-2-sulfonamide]: 100 to 1000 nM; `CC(C)c1c(F)c(Cl)c(F)c(C(C)C)c1NC(=O)NS(=O)(=O)c1cc2c(o1)CCC/C2=N/O` [Compound 100, (Z)-N-((4-chloro-3,5-difluoro-2,6-diisopropylphenyl)carbamoyl)-4-(hydroxyimino)-4,5,6,7-tetrahydrobenzofuran-2-sulfonamide]: 1000 to 10000 nM; `CC(C)c1c(F)c(Cl)c(F)c(C(C)C)c1NC(=O)NS(=O)(=O)c1cc2c(o1)CCC/C2=N\O` [Compound 101, (E)-N-((4-chloro-3,5-difluoro-2,6-diisopropylphenyl)carbamoyl)-4-(hydroxyimino)-4,5,6,7-tetrahydrobenzofuran-2-sulfonamide]: 100 to 1000 nM.
In turn, `CC(C)c1c(F)c(Cl)c(F)c(C(C)C)c1NC(=O)NS(=O)(=O)c1cc2c(o1)CCCC2O` (stereo not shown) [Compound 102, N-((4-chloro-3,5-difluoro-2,6-diisopropylphenyl)carbamoyl)-4-hydroxy-4,5,6,7-tetrahydrobenzofuran-2-sulfonamide] showed an IC50 of 100 to 1000 nM.
For the compound `CC(C)c1c(F)c(Cl)c(F)c(C(C)C)c1NC(=O)NS(=O)(=O)c1cc2c(o1)CCCC2(C)O` (stereo not shown) [Compound 103, N-((4-chloro-3,5-difluoro-2,6-diisopropylphenyl)carbamoyl)-4-hydroxy-4-methyl-4,5,6,7-tetrahydrobenzofuran-2-sulfonamide], the IC50 lay in the range of 100 to 1000 nM.
Next, `O=C(O)CC1(O)CCCc2oc(S(=O)(=O)NC(=O)Nc3c4c(cc5c3CCC5)CCC4)cc21` (stereo not shown) [Compound 104, 2-(2-(N-((1,2,3,5,6,7-hexahydro-s-indacen-4-yl)carbamoyl)sulfamoyl)-4-hydroxy-4,5,6,7-tetrahydrobenzofuran-4-yl)acetic acid]: 1000 to 10000 nM; `CCOC(=O)C#CC1(O)CCCc2oc(S(=O)(=O)NC(=O)Nc3c4c(cc5c3CCC5)CCC4)cc21` (stereo not shown) [Compound 105, ethyl 3-(2-(N-((1,2,3,5,6,7-hexahydro-s-indacen-4-yl)carbamoyl)sulfamoyl)-4-hydroxy-4,5,6,7-tetrahydrobenzofuran-4-yl)propiolate]: 100 to 1000 nM.
